Measurements published in ChEMBL document CHEMBL1129235, “Discovery of the hemifumarate and (alpha-L-alanyloxy)methyl ether as prodrugs of an antirheumatic oxindole: prodrugs for the enolic OH group” (J Med Chem, 1996).
Converted amounts (≈) assume the structure as drawn.

Assays:
Rattus norvegicus = species on record: Rattus norvegicus; assay: Relative bioavailability of prodrugs in rat; format: ADME, organism-based; details: in vivo
[1] = (§1) Aqueous solubility; format: physicochemical; details: aqueous medium (not further specified); read-out: S
[2] = as §1; format: physicochemical; details: aqueous medium (not further specified); read-out: S; remark: listed apart in the source
[3] = as §1; format: physicochemical; details: aqueous medium (not further specified); read-out: S; remark: listed apart in the source
Canis familiaris = species on record: Canis familiaris; assay: Relative bioavailability of oxindole prodrugs in dog; format: ADME, organism-based, Canis lupus familiaris; details: in vivo
[4] = Relative bioavailability of oxindole prodrugs in monkey; format: ADME, organism-based; details: simiiformes, in vivo
[5] = as §1; format: physicochemical; details: aqueous medium (not further specified); read-out: S; remark: listed apart in the source
[6] = Ionization constant for the compound was evaluated; format: physicochemical

Relative F% (Rattus norvegicus)	solubility [1] [µg/mL]	Structure (SMILES)	also measured
12	–	CC(C)OC(=O)OC(C)O/C(=C1/C(=O)N(C(N)=O)c2cc(Cl)c(F)cc21)c1cccs1 (stereo not drawn)	–
42	–	NC(=O)N1C(=O)/C(=C(/OCOC(=O)COCc2ccccc2)c2cccs2)c2cc(F)c(Cl)cc21	–
3.5	0.023 (≈ 0.056 µM)	CCOC(=O)O/C(=C1\C(=O)N(C(N)=O)c2cc(Cl)c(F)cc21)c1cccs1	–
0	–	NC(=O)N1C(=O)/C(=C(\OC(=O)c2ccccc2)c2cccs2)c2cc(F)c(Cl)cc21	–
17	< 0.02	CC(=O)OCC(=O)OCO/C(=C1/C(=O)N(C(N)=O)c2cc(Cl)c(F)cc21)c1cccs1	–
90	–	CC(O)C(=O)OCO/C(=C1/C(=O)N(C(N)=O)c2cc(Cl)c(F)cc21)c1cccs1 (stereo not drawn)	solubility [3]: 0.38 µg/mL (≈ 0.862 µM); Relative bioavailability (Canis familiaris): 22
3.5	–	CCOC(=O)CCC(=O)O/C(=C1\C(=O)N(C(N)=O)c2cc(Cl)c(F)cc21)c1cccs1	–
14	0.011 (≈ 0.0289 µM)	CC(=O)O/C(=C1\C(=O)N(C(N)=O)c2cc(Cl)c(F)cc21)c1cccs1	–
26	0.009 (≈ 0.0198 µM)	CCOC(=O)OC(C)O/C(=C1/C(=O)N(C(N)=O)c2cc(Cl)c(F)cc21)c1cccs1 (stereo not drawn)	Relative bioavailability (Canis familiaris): 1.4
62	–	COCC(=O)OCO/C(=C1/C(=O)N(C(N)=O)c2cc(Cl)c(F)cc21)c1cccs1	–
3.7	–	CC(C)(C)C(=O)O/C(=C1\C(=O)N(C(N)=O)c2cc(Cl)c(F)cc21)c1cccs1	–
4	–	NC(=O)N1C(=O)/C(=C(/OC(=O)/C=C/c2ccccc2)c2cccs2)c2cc(F)c(Cl)cc21	–
17	0.013 (≈ 0.0307 µM)	CCCCC(=O)O/C(=C1\C(=O)N(C(N)=O)c2cc(Cl)c(F)cc21)c1cccs1	–
20	–	CC(NC(=O)OC(C)(C)C)C(=O)OCO/C(=C1/C(=O)N(C(N)=O)c2cc(Cl)c(F)cc21)c1cccs1 (stereo not drawn)	–
5.7	–	CCCCCCCCOC(=O)O/C(=C1/C(=O)N(C(N)=O)c2cc(Cl)c(F)cc21)c1cccs1	–
46	–	Cc1ccc(S(=O)(=O)O)cc1.NCC(=O)OCO/C(=C1/C(=O)N(C(N)=O)c2cc(Cl)c(F)cc21)c1cccs1	Relative bioavailability (Canis familiaris): 78
80	–	C[C@@H](N)C(=O)OCO/C(=C1/C(=O)N(C(N)=O)c2cc(Cl)c(F)cc21)c1cccs1.Cc1ccc(S(=O)(=O)O)cc1	solubility [3]: 150 µg/mL; Relative bioavailability [4]: 78; Relative bioavailability (Canis familiaris): 78
8.9	–	COCC(=O)O/C(=C1\C(=O)N(C(N)=O)c2cc(Cl)c(F)cc21)c1cccs1	–
13	–	COC(=O)O/C(=C1\C(=O)N(C(N)=O)c2cc(Cl)c(F)cc21)c1cccs1	–
21	< 0.02	CCOC(=O)/C=C/C(=O)O/C(=C1/C(=O)N(C(N)=O)c2cc(Cl)c(F)cc21)c1cccs1	Relative bioavailability (Canis familiaris): 6.4
86	–	CCC(OCc1ccccc1)C(=O)OCO/C(=C1/C(=O)N(C(N)=O)c2cc(Cl)c(F)cc21)c1cccs1 (stereo not drawn)	Relative bioavailability (Canis familiaris): 12
95	0.08 (≈ 0.183 µM)	NC(=O)N1C(=O)/C(=C(/OC(=O)/C=C/C(=O)O)c2cccs2)c2cc(F)c(Cl)cc21	solubility [3]: 2.5 µg/mL (≈ 5.72 µM); Relative bioavailability [4]: 73; solubility [5]: 24 µg/mL (≈ 54.9 µM); Relative bioavailability (Canis familiaris): 91
9.9	–	CC(C)OC(=O)O/C(=C1/C(=O)N(C(N)=O)c2cc(Cl)c(F)cc21)c1cccs1 (stereo in doubt; 33)	–

Further lines, the compound ahead of its results:

Structure (SMILES)	Relative F% (Rattus norvegicus)	solubility [1] [µg/mL]	also measured
NC(=O)N1C(=O)/C(=C(/OCOC(=O)c2ccccc2)c2cccs2)c2cc(F)c(Cl)cc21	0	–	–
CC(C)C(N)C(=O)OCO/C(=C1/C(=O)N(C(N)=O)c2cc(Cl)c(F)cc21)c1cccs1.Cc1ccc(S(=O)(=O)O)cc1 (stereo not drawn)	27	–	–
CC(=O)OC(C)O/C(=C1/C(=O)N(C(N)=O)c2cc(Cl)c(F)cc21)c1cccs1 (stereo not drawn)	2.3	0.04 (≈ 0.0942 µM)	–
NC(=O)N1C(=O)/C(=C(\OC(=O)c2cccnc2)c2cccs2)c2cc(F)c(Cl)cc21	0	< 0.06	solubility [2]: < 0.06 µg/mL
CC(C)CC(N)C(=O)OCO/C(=C1/C(=O)N(C(N)=O)c2cc(Cl)c(F)cc21)c1cccs1.Cc1ccc(S(=O)(=O)O)cc1 (stereo not drawn)	81	–	–
NC(=O)N1C(=O)/C(=C(\OC(=O)c2ccncc2)c2cccs2)c2cc(F)c(Cl)cc21	2.2	0.32 (≈ 0.721 µM)	solubility [2]: < 0.07 µg/mL
CCC(=O)O/C(=C1\C(=O)N(C(N)=O)c2cc(Cl)c(F)cc21)c1cccs1	6.6	0.003 (≈ 0.0076 µM)	–
O=C(c1cccs1)c1c2cc(F)c(Cl)cc2n2c(=O)[nH]c(=O)oc12	25	17 (≈ 46.6 µM)	–
CC(C)(C)OC(=O)NCC(=O)OCO/C(=C1/C(=O)N(C(N)=O)c2cc(Cl)c(F)cc21)c1cccs1	0	0.06 (≈ 0.114 µM)	–
CCC(OC)C(=O)OCO/C(=C1/C(=O)N(C(N)=O)c2cc(Cl)c(F)cc21)c1cccs1 (stereo not drawn)	93	–	–
CCN(CC)C(=O)COC(=O)CCC(=O)O/C(=C1/C(=O)N(C(N)=O)c2cc(Cl)c(F)cc21)c1cccs1	16	–	–
NC(=O)N1C(=O)/C(=C(\OC(=O)c2ccccn2)c2cccs2)c2cc(F)c(Cl)cc21	1.6	< 0.06	solubility [2]: < 0.06 µg/mL
CC(=O)OCC(=O)O/C(=C1\C(=O)N(C(N)=O)c2cc(Cl)c(F)cc21)c1cccs1	6.6	–	–
COC(C)C(=O)OCO/C(=C1/C(=O)N(C(N)=O)c2cc(Cl)c(F)cc21)c1cccs1 (stereo not drawn)	45	–	–
CCCC(OCc1ccccc1)C(=O)OCO/C(=C1/C(=O)N(C(N)=O)c2cc(Cl)c(F)cc21)c1cccs1 (stereo not drawn)	58	–	Relative bioavailability (Canis familiaris): 7.5
NC(=O)N1C(=O)/C(=C(\OC(=O)c2cccc(C(=O)O)c2)c2cccs2)c2cc(F)c(Cl)cc21	4.2	0.58 (≈ 1.19 µM)	–
CCN(CC)C(=O)OCC(=O)OCO/C(=C1/C(=O)N(C(N)=O)c2cc(Cl)c(F)cc21)c1cccs1	36	–	–
CC(C)(C)C(=O)OCO/C(=C1/C(=O)N(C(N)=O)c2cc(Cl)c(F)cc21)c1cccs1	0	–	–
COCC(=O)OC(C)O/C(=C1/C(=O)N(C(N)=O)c2cc(Cl)c(F)cc21)c1cccs1 (stereo not drawn)	47	0.34 (≈ 0.747 µM)	Relative bioavailability (Canis familiaris): 5.2
Cl.Cl.NCCCCC(N)C(=O)OCO/C(=C1/C(=O)N(C(N)=O)c2cc(Cl)c(F)cc21)c1cccs1 (stereo not drawn)	49	–	–
CC(C)OC(=O)O/C(=C1/C(=O)N(C(N)=O)c2cc(Cl)c(F)cc21)c1cccs1 (stereo in doubt; 32)	0.6	–	–
NC(=O)N1C(=O)C(=C(O)c2cccs2)c2cc(F)c(Cl)cc21 [ILONIDAP]	100	40 (≈ 118 µM)	Relative bioavailability [4]: 100; pKa [6]: 3.5; Relative bioavailability (Canis familiaris): 100
